# Measured values: paper PMC8805316, “NanoBRET in C. elegans illuminates functional receptor interactions in real time” (BMC Molecular and Cell Biology, 2022)
# “Also recorded” adds a separate entry of the source. Non-standard residues stand in square brackets, D forms with d. Residues, ends and D or L forms follow the SMILES beside them. No end group written: not given here. *: point of attachment. 5TAMRA = CN(C)c1ccc2c(c1)Oc1cc(N(C)C)ccc1C21OC(=O)c2cc(C(=O)*)ccc21; Dap(TAM) = not defined here; Dap = NC[C@H](N)C(=O)O
# T1: Nluc::LAT-1 (lat-1p::lat-1(1-249)::Nluc::lat-1(250-650)::GFP::lat-1(651-1015)), expressed in C. elegans (C. elegans, UniProt G5EDW2 28-1014)
# T1 sequence (looked up): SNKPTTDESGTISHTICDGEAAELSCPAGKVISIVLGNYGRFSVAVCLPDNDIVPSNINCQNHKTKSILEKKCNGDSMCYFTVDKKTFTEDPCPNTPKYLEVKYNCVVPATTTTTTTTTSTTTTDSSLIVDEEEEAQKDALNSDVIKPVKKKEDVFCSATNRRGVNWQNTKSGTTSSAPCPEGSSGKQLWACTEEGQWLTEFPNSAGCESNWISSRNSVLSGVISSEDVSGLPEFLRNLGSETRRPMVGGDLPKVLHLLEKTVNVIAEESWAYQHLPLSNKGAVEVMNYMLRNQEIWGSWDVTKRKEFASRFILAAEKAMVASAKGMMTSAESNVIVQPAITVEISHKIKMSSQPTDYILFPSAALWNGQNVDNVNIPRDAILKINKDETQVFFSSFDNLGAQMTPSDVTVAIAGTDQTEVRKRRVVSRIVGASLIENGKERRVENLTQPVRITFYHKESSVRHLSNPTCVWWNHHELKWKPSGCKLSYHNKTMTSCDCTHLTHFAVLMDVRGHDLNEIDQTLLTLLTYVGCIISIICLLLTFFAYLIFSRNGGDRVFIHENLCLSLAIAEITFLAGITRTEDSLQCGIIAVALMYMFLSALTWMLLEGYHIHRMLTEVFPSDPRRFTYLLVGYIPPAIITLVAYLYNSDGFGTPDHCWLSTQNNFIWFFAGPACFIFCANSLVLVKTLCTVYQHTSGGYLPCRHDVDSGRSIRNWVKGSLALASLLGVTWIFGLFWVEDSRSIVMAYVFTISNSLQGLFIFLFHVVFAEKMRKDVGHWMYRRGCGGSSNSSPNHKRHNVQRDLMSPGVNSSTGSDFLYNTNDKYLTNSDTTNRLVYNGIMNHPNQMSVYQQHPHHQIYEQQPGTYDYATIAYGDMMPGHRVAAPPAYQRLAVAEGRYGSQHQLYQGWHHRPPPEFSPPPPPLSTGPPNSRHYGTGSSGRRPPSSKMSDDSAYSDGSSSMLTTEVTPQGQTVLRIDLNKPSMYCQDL
# Columns and labels:
# [1] = tested on: Nanoluciferase (Nluc); assay: Luminescence of luciferase substrate in cut Nluc-expressing worms (Fig. 1E); conditions: vs coelenterazine H
# Experimental: (§1) For luminescence measurements of intact worms, animals (1; 10; 50; 100 or 500) were directly transferred into the wells of a white flat-bottom 384-well plate in 50 μl HBSS buffer. Worms to be cut were pre-washed with M9 + 0.1% Tween to avoid sticking of worms to the dish and subsequently transferred in 2 ml of HBSS. Incisions were made in the middle of the body with a scalpel blade and worms were immediately afterwards transferred with a glass pipette into HBSS buffer on ice. For mechanically cracking, a worm suspension was homogenized in tubes with 150 μl HBSS and six glass beads (Ø = 3 mm) using with a Precellys homogenizer (Bertin instruments, France) for 40 s at 5000 rpm. Samples were placed on ice until further usage.
# 50 prepared worms were transferred into a white flat bottom 384-well plate in a total volume of 50 μl HBSS + 25 mM HEPES (pH 7.4; denoted BRET buffer). Immediately after adding coelenterazine H solution (Nanolight/ Prolume, USA) to a final concentration of 4 μM, luminescence was detected using an EnVision plate reader (PerkinElmer, USA) and a NanoBRET Blue 460/80 nm filter with 1000 ms integration time (five repeats every 5 min for long time observation).
# [2] = tested on: empty vector-transfected COS-7 cells; assay: cAMP accumulation assay (AlphaScreen), COS-7 cells with empty vector (Fig. S3C); format: cell-based, African green monkey; conditions: 100 μM peptide, mean ± SEM of 5 independent assays, DMSO control 5.39 ± 2.15
# Experimental: (§2) All in vitro experiments were carried out using either HEK293 cells (Homo sapiens, embryonic kidney, DSMZ (German Collection of Microorganisms and Cell Cultures) ACC 305) or COS-7 cells (African green monkey, cercopithecus aethiops, kidney, DSMZ (German Collection of Microorganisms and Cell Cultures) ACC 60). HEK293 cells were kept in Dulbecco’s Modified Eagle’s Medium (DMEM) with Ham’s F-12 (v/v) and 15% (v/v) heat-inactivated fetal calf serum (FCS), while COS-7 cells were cultured in DMEM with 10% (v/v) FCS and 1% (v/v) Penicillin-Streptomycin. All cells were kept at 37 °C under a humidified atmosphere (5% CO2).
# Gs-coupling of LAT-1, quantified by detection of intracellular cAMP accumulation, was measured using an AlphaScreen cAMP detection kit (PerkinElmer, USA). Briefly, COS-7 cells (15,000 cells/ well) were transfected in 96-well plates with either 200 ng of LAT-1-encoding plasmid or empty vector using Lipofectamine2000 (ThermoFisher Scientific). […] The following steps were conducted as stated in the manufactures’ protocol of the AlphaScreen cAMP detection kit (PerkinElmer, USA) and an EnVision plate reader (PerkinElmer, USA) was used to detect the fluorescence. The data were analyzed with GraphPad Prism version 6 (GraphPad Software) are presented in x-fold over the corresponding empty vector control.
# [3] = target: T2, Nluc::LAT-1 (Caenorhabditis elegans, UniProt G5EDW2); assay: biochemical; format: binding, C. elegans
# T2 construct: Lat-1p::lat-1(1–249)::Nluc::lat-1(250–650)::GFP::lat-1(651–1015); GFP, inserted between residues 650 and 651 (so in the source); expressed in transfected cells; host or cells: transgenic C. elegans (extrachromosomal array, lat-1 knockout background), incised young adult worms
# Experimental: All measurements were conducted using synchronized young adult worms (1 day post L4). Individuals were washed twice with HBSS (Hanks’ balanced salt solution with 25 mM HEPES, pH 7.4, 37 °C) and the number of worms/ μl was calculated.
# as §1
# For BRET binding assays in vivo, the nanoluciferase (Nluc) was applied as energy donor and either peptides labeled with the TAM fluorophore or the mNeonGreen fluorescent protein fused to a receptor served as acceptor.
# 30 Nluc-expressing worms with incisions in 50 μl BRET buffer were incubated with dissolving buffer or peptide solutions of final concentrations ranging from 0.05–10 μM in a 384-well plate. During a 25 min incubation with gentle shaking, 10 μl Nano-Glo Live Cell Reagent (N2011, Promega, USA) of a 5x stock were added according to manufacturer’s instructions after 15 min to each well. Competition-binding assays were performed similarly, but additionally, unlabeled peptide (final concentrations 0.016–10 μM) was pipetted into each well and 5 μl of a 10x stock Nano-Glo Live cell reagent was applied after 15 min.
# Luminescence (L) and fluorescence (F) were detected with a microplate plate reader (Tecan Spark) using the following filter set: donor = 430–470 nm, acceptor = 550–700 nm with 1000 ms integration time. BRET was calculated by dividing F values by L values. For each experiment, the background signal of donor-only cells was subtracted, such that the BRET ratio at 0 μM ligand equals 0.00. In Fig. 3B (left) and Fig. 3D, the mean of n = 4 (NPR-11) or n = 3 (LAT-1) independent, individually background-corrected single experiments is presented.
# [4] = tested on: LAT-1; assay: cAMP accumulation assay (AlphaScreen), COS-7 cells with LAT-1 plasmid (Fig. S3C); format: cell-based, C. elegans; conditions: for cAMP conc.: LAT-1 plasmid, 100 μM peptide, mean ± SEM of 5 independent assays, DMSO control 4.66 ± 1.72
# Experimental: as §2
# Gs-coupling of LAT-1, quantified by detection of intracellular cAMP accumulation, was measured using an AlphaScreen cAMP detection kit (PerkinElmer, USA). Briefly, COS-7 cells (15,000 cells/ well) were transfected in 96-well plates with either 200 ng of LAT-1-encoding plasmid or empty vector using Lipofectamine2000 (ThermoFisher Scientific). 48 h post transfection, the cells were stimulated with 100 μM peptide solution in HBSS containing 1 mM 3-isobutyl-1-methylxanthine (IBMX) and 1% DMSO and control buffer without peptide for 30 min at 37 °C. Subsequently, the medium was displaced with lysis buffer (5 mM HEPES, 0.3% Tween-20, 0.1% BSA, 1 mM IBMX, pH 7.6) and plates were frozen at − 80 °C until further use. The following steps were conducted as stated in the manufactures’ protocol of the AlphaScreen cAMP detection kit (PerkinElmer, USA) and an EnVision plate reader (PerkinElmer, USA) was used to detect the fluorescence. The data were analyzed with GraphPad Prism version 6 (GraphPad Software) are presented in x-fold over the corresponding empty vector control.
# [5] = target: Nluc::NPR-11::eYFP in membranes of transfected HEK293 cells (C. elegans) (UniProt Q18179); assay: FRET or BRET; NanoBRET binding in vitro: membranes of HEK293 cells transiently transfected with Nluc::NPR-11::eYFP (0.5 μg total protein), TAM-labeled peptide 10^-12 M to 10^-5 M, BRET buffer with 0.1% BSA and Pefabloc SC, 10 min, room temperature, coelenterazine H 4 μM; three-parameter logistic …
# Nluc::NPR-11::eYFP in membranes of transfected HEK293 cells (C. elegans), sequence (Q18179 whole entry, the tested form may be a part): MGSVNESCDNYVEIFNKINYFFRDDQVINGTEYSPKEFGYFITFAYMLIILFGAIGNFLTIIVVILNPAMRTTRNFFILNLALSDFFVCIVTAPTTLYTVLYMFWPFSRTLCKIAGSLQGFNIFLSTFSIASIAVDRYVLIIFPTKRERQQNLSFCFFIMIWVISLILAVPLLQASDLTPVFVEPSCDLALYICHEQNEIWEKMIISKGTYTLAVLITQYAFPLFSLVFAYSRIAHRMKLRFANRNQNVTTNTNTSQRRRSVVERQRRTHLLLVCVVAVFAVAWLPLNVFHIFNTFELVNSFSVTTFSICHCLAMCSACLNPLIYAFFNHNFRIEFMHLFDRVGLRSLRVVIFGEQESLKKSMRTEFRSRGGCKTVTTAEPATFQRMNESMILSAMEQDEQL
# [6] = target: Nluc::NPR-11 (Nanoluciferase fused to the extracellular N terminus of the neuropeptide receptor NPR-11), expressed in C. elegans (C. elegans) (UniProt Q18179); assay: FRET or BRET; NanoBRET binding in vivo: 30 Nluc-expressing C. elegans (L4 + 1 day) with incisions in 50 μl BRET buffer (HBSS + 25 mM HEPES, pH 7.4), TAM-labeled peptide 0.05-10 μM, 25 min incubation, Nano-Glo Live Cell Reagent (furimazine); Kd from one-site total and nonspecific binding fit with the scrambled peptide as nonspecific
# Nluc::NPR-11 (Nanoluciferase fused to the extracellular N terminus of the neuropeptide receptor NPR-11), expressed in C. elegans (C. elegans), sequence (Q18179 whole entry, the tested form may be a part): as above
# [7] = target: Nluc::NPR-11::eYFP in membranes of transfected HEK293 cells (C. elegans) (UniProt Q18179)
# [8] = target: Nluc::NPR-11 (Nanoluciferase fused to the extracellular N terminus of the neuropeptide receptor NPR-11), expressed in C. elegans (C. elegans) (UniProt Q18179); assay: FRET or BRET; NanoBRET binding in vivo: 30 Nluc-expressing C. elegans (L4 + 1 day) with incisions in 50 μl BRET buffer (HBSS + 25 mM HEPES, pH 7.4), TAM-labeled peptide 0.05-10 μM, 25 min incubation, Nano-Glo Live Cell Reagent (furimazine); Kd from one-site total and nonspecific binding fit with the scrambled peptide as nonspecific; remark: listed apart in the source
# [9] = target: T1, Nluc::LAT-1 …; assay: cell-based or functional assay
Molecule,cAMP conc. [2],Kd [3],cAMP conc. [4],"cAMP reporter gene assay, forskolin-stimulated HEK293 cells transfected with NPR-11::eYFP (no Nluc): EC50 of NPR-11 activation [7]",also measured
O=c1c(Cc2ccco2)nc2c(Cc3ccccc3)[nH]c(-c3ccccc3)cn1-2 [furimazine],,,,,luminescence signal over time [1]: stable values over the entire time period; also recorded: lower but more stable luminescence signal
CSCC[C@H](NC(=O)[C@H](CC(C)C)NC(=O)[C@@H](NC(=O)[C@H](C)NC(=O)[C@H](Cc1ccccc1)NC(=O)[C@H](Cc1c[nH]cn1)NC(=O)[C@@H](N)[C@@H](C)O)C(C)C)C(=O)N[C@@H](CC(=O)O)C(=O)N[C@H](C(=O)N[C@@H](CCCNC(=N)N)C(=O)NCC(=O)N[C@@H](Cc1c[nH]cn1)C(=O)N[C@@H](CNC(=O)c1ccc2c(c1)C(=O)OC21c2ccc(N(C)C)cc2Oc2cc(N(C)C)ccc21)C(=O)O)C(C)C [TAM-pLAT-1] (H-THFAVLMDVRGH[Dap](5TAMRA)-OH),2.86 ± 0.60 nM,> 10000 nM,3.69 ± 0.70 nM,,"cAMP accumulation over control ([4]; 100 μM, 30 min, 37 °C, IBMX): 1.5 -fold"
CSCC[C@H](N)C(=O)N[C@@H](CC(=O)O)C(=O)N[C@H](C(=O)N[C@@H](CCCNC(=N)N)C(=O)N[C@@H](C)C(=O)N[C@H](C(=O)N[C@@H](Cc1c[nH]cn1)C(=O)N[C@@H](Cc1c[nH]cn1)C(=O)NCC(=O)N[C@H](C(=O)N[C@@H](CC(C)C)C(=O)N[C@@H](Cc1ccccc1)C(=O)N[C@@H](CNC(=O)c1ccc2c(c1)C(=O)OC21c2ccc(N(C)C)cc2Oc2cc(N(C)C)ccc21)C(=O)O)C(C)C)C(C)C)[C@@H](C)O [TAM-scrpLAT-1] (H-MDTRAVHHGVLF[Dap](5TAMRA)-OH),4.45 ± 0.71 nM,> 10000 nM,4.63 ± 0.81 nM,,BRET ratio relative to TAM-pLAT-1 ([3]; at 10 μM): one-third higher; cAMP accumulation / receptor activation ([4]; 100 μM): did not lead to a cAMP accumulation; also recorded: does not activate the receptor
TAM-FLP-34-1 (tetramethylrhodamine-labeled FLP-34-1) (peptide),,,,0.5 nM,Kd [5]: 388 nM; Kd [6]: 1500 nM; increase in the BRET ratio at 10 μM [8]: 0.08
FLP-34-1 (unlabeled) (peptide),,,,2.3 nM,
THFAVLMDVRGH-{Dap(TAM)} (reading uncertain) [TAM-pLAT-1 (TAM-labeled synthetic peptide derived from the tethered agonist sequence of LAT-1)],,,,,"cAMP accumulation (AlphaScreen) in COS-7 cells transfected with a LAT-1-encoding plasmid, 100 μM peptide [9]: 1.5 fold over control"
